From the supplement of paper PMC10307832

Legend:
Assay in all cases: relative viability (nuclei count vs DMSO), 5 days (fraction); higher = more cells survive
AZ628 + Navitoclax = compound: CC1=C(C=C(C=C1)NC(=O)C2=CC(=CC=C2)C(C)(C)C#N)NC3=CC4=C(C=C3)N=CN(C4=O)C [AZ628] + CC1(C)CCC(c2ccc(Cl)cc2)=C(CN2CCN(c3ccc(C(=O)NS(=O)(=O)c4ccc(N[C@H](CCN5CCOCC5)CSc5ccccc5)c(S(=O)(=O)C(F)(F)F)c4)cc3)CC2)C1 [Navitoclax] (partner 0.5 µM)
Procedure, shortened: (§1)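 Relative viability is defined as nuclei in treated wells over nuclei in vehicle wells. Duplicate plates were run and medians reported. Lung cancer cell lines in 1536-well plates were dosed by pin tool one day after seeding, with one drug or with a fixed anchor-drug dose plus five library-drug doses (not always all listed) in √10 steps, and nuclei were counted after 5 days.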

[1] = compound: C[As](C)SC[C@H](NC(=O)CC[C@H](N)C(=O)O)C(=O)NCC(=O)O [Darinaparsin] + CCNC(=O)c1noc(-c2cc(C(C)C)c(O)cc2O)c1-c1ccc(CN2CCOCC2)cc1 [Luminespib] (partner 0.01 µM)
Procedure, shortened: as §1

[2] = compound: C[As](C)SC[C@H](NC(=O)CC[C@H](N)C(=O)O)C(=O)NCC(=O)O [Darinaparsin] + CC(=O)c1c(C)c2cnc(Nc3ccc(N4CCNCC4)cn3)nc2n(C2CCCC2)c1=O [Palbociclib] (partner 0.5 µM)
Procedure, shortened: as §1

Darinaparsin + Lapatinib = compound: C[As](C)SC[C@H](NC(=O)CC[C@H](N)C(=O)O)C(=O)NCC(=O)O [Darinaparsin] + CS(=O)(=O)CCNCc1ccc(-c2ccc3ncnc(Nc4ccc(OCc5cccc(F)c5)c(Cl)c4)c3c2)o1 [Lapatinib] (partner 2 µM)
Procedure, shortened: as §1

Row | Cell Line | relative viability (AZ628 + Navitoclax; first compound 0.08 µM) | relative viability (AZ628 + Navitoclax; first compound 0.253 µM) | relative viability (AZ628 + Navitoclax; first compound 0.8 µM) | relative viability (AZ628 + Navitoclax; first compound 2.53 µM) | relative viability (AZ628 + Navitoclax; first compound 8 µM) | relative viability ([1]; first compound 0.08 µM) | relative viability ([1]; first compound 0.8 µM) | relative viability ([1]; first compound 2.53 µM) | relative viability ([1]; first compound 8 µM) | relative viability ([2]; first compound 0.08 µM) | relative viability ([2]; first compound 0.8 µM) | relative viability ([2]; first compound 2.53 µM) | relative viability ([2]; first compound 8 µM) | relative viability (Darinaparsin + Lapatinib; first compound 0.08 µM) | relative viability (Darinaparsin + Lapatinib; first compound 0.8 µM) | relative viability (Darinaparsin + Lapatinib; first compound 2.53 µM) | relative viability (Darinaparsin + Lapatinib; first compound 8 µM)
1 | NCI-H838 | 1.15 | 1.19 | 1.1 | 1.11 | 0.991 | 0.29 | 0.265 | 0.284 | 0.283 | 0.245 | 0.216 | 0.229 | 0.229 | 1.23 | 0.835 | 0.831 | 1.32
2 | NCI-H661 |  |  |  |  |  | 0.934 | 0.874 | 1.08 | 1.04 | 0.385 | 0.355 | 0.442 | 0.404 | 0.509 | 0.584 | 0.513 | 0.511
3 | NCI-H1734 | 0.864 | 0.718 | 0.818 | 0.791 | 0.502 | 0.201 | 0.16 | 0.2 | 0.19 | 0.35 | 0.332 | 0.361 | 0.395 | 1.87 | 1.01 | 0.951 | 1.31
4 | HCC-827 | 0.986 | 1 | 0.954 | 1.02 | 0.811 | 0.812 | 0.704 | 0.59 | 0.936 | 0.514 | 0.519 | 0.414 | 0.477 | 0.198 | 0.184 | 0.153 | 0.176
5 | 201T | 1.22 | 1.21 | 1.25 | 1.27 | 1.23 | 1.1 | 1.03 | 0.958 | 1.16 | 0.345 | 0.342 | 0.363 | 0.368 | 1.05 | 1.03 | 1.02 | 0.76
6 | HCC-44 | 0.966 | 1 | 0.996 | 1.06 | 0.874 | 1.47 | 1.12 | 0.954 | 0.804 | 1.04 | 0.916 | 1.02 | 1 | 1.24 | 1.04 | 0.903 | 1.08
7 | NCI-H650 |  |  |  |  |  | 0.81 | 0.793 | 0.872 | 0.831 | 0.325 | 0.331 | 0.339 | 0.322 | 0.87 | 0.703 | 0.897 | 0.886
8 | PC-3 [JPC-3] | 0.835 | 0.782 | 0.875 | 0.814 | 0.817 | 0.807 | 0.721 | 0.698 | 0.87 | 0.553 | 0.516 | 0.542 | 0.547 | 0.458 | 0.364 | 0.411 | 0.492
9 | NCI-H1395 | 1.2 | 1.08 | 1.1 | 1.05 | 1.22 | 0.681 | 0.708 | 0.553 | 0.593 | 0.617 | 0.54 | 0.54 | 0.646 | 1.3 | 0.949 | 1.03 | 1.37
10 | CAL-12T | 1.33 |  | 1.24 | 1.28 | 0.826 | 0.182 | 0.429 | 0.429 | 0.761 | 0.446 | 0.387 | 0.408 | 0.478 | 0.698 | 0.557 | 0.775 | 0.68
11 | NCI-H1944 | 1.14 | 1.04 | 1 | 0.949 | 0.921 | 0.84 | 0.705 | 0.686 | 0.676 | 0.314 | 0.339 | 0.31 | 0.404 | 0.834 | 0.796 | 0.664 | 0.947
12 | LCLC-103H |  |  |  |  |  | 1.14 | 0.876 | 0.882 | 1.22 | 0.49 | 0.427 | 0.49 | 0.533 |  |  |  | 
13 | Calu-6 | 0.926 | 0.494 | 0.317 | 0.595 | 0.152 |  |  |  |  |  |  |  |  | 1.45 | 1.14 | 1.09 | 1.06
14 | NCI-H1563 |  |  |  |  |  | 0.588 | 0.429 | 0.495 | 0.473 |  |  |  |  | 1.01 | 1.02 | 0.914 | 1.14
15 | NCI-H1648 |  |  |  |  |  |  |  |  |  |  | 0.242 |  | 0.243 |  |  |  | 
16 | NCI-H2342 |  |  |  |  |  | 0.773 | 0.8 | 0.813 | 0.826 | 0.539 | 0.527 | 0.493 | 0.538 |  |  |  | 
17 | NCI-H596 | 0.839 | 1 | 1.08 | 1.03 | 0.931 | 1.14 | 1.12 | 0.951 | 0.966 |  |  |  |  | 1.1 | 1.02 | 1.01 | 1.06
18 | NCI-H522 |  |  |  |  |  | 1.1 | 1.22 | 1.28 | 1.15 | 1.11 | 1.01 | 0.957 | 1.03 |  |  |  | 
19 | A549 | 1.19 | 1.16 | 1.02 | 1.12 | 0.589 |  |  |  |  |  |  |  |  | 1.45 | 1.05 | 1.01 | 1.06
20 | NCI-H1703 | 0.751 | 0.311 | 0.294 | 0.354 | 0.253 |  |  |  |  |  |  |  |  |  | 1.18 | 1.29 | 1.18
21 | HCC-366 | 1.01 | 1.09 | 0.997 | 0.97 | 0.598 |  |  |  |  | 0.603 |  | 0.368 | 0.533 | 1.63 | 0.95 | 1.03 | 1.67
22 | NCI-H1299 | 1.1 | 1.15 | 1.17 | 1.19 | 0.975 |  |  |  |  |  |  |  |  | 1.09 | 0.955 | 0.958 | 0.853
23 | ChaGo-K-1 | 1.1 |  | 0.751 | 1.1 | 1.14 | 0.692 | 0.502 | 0.55 | 0.786 | 0.95 | 0.958 | 0.856 | 1.06 |  |  |  | 
24 | NCI-H1623 |  |  |  |  |  | 0.538 | 0.572 | 0.496 | 0.43 |  |  |  |  |  |  |  | 
25 | EBC-1 | 0.349 | 0.427 | 0.325 | 0.326 | 0.224 |  |  |  |  |  |  |  |  | 0.2 | 0.211 | 0.246 | 0.223
26 | SW 900 |  |  |  |  |  | 0.169 | 0.169 | 0.17 | 0.166 | 0.55 |  | 0.59 | 0.655 |  |  |  | 
